The values that follow come from article PMC10132538, “Regulation of the two-pore domain potassium channel, THIK-1 and THIK-2, by G protein coupled receptors” (PLOS ONE, 2023).

Assay [1] has as its target T1, M1R (Homo sapiens, UniProt P11229).
T1 construct: expressed in transfected cells; host or cells: HEK293T
T1 sequence (P11229 1-460): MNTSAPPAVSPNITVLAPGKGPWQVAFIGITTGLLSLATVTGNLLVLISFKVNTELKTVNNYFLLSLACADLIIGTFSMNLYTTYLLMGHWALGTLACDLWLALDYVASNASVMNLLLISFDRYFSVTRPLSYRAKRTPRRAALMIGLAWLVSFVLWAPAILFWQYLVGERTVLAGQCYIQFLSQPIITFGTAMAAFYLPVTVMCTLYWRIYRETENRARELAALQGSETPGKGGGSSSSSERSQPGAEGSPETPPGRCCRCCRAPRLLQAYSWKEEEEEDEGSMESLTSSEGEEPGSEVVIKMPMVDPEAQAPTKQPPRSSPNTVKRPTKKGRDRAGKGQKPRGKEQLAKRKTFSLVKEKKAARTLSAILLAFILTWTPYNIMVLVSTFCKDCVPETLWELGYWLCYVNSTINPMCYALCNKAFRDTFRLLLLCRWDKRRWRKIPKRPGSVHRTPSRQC
Nature of the assay: M1R-induced increase of THIK-1 channel current, whole cell patch clamp in HEK293T cells. The class given is cell-based. To be noted: BAPTA 5 mM in pipette solution, n = 8. An excerpt:
(§1) Coding region of mGu2 (M1-P840) was amplified by conventional PCR with designed primers and the resulting product was subcloned into pEYFP-N1 vector at the BglII and EcoRI sites. The cDNAs for mouse THIK-2 channel and dimeric THIK channels were subcloned into pcDNA3.1(-) vector. To increase the surface membrane expression of the THIK-2 channel, 29 residues (Ser2-Ser30) were removed (ΔN-THIK-2). […] Ci-VSP-IRES-GFP vector was kindly gifted by Dr. Y. Okamura (Osaka University, Osaka, Japan). HEK293T cells or CHO-K1 cells were seeded on glasses and transfected with the plasmid DNAs for THIK channels, receptors and a transfection marker of yellow fluorescent protein (YFP). Electrophysiological experiments were performed 24–72 h after the transfection. […] Pertussis toxin (PTX) was purchased from Wako (Osaka, Japan). […] All reagents were dissolved at high concentration and stored at -20 °C as the stock solutions. The stock reagent solution was diluted at concentrations for the electrophysiological experiments. PTX was solved in the culture medium (final concentration, 300 ng/mL) and cells were incubated in it for more than 16 h. U73122 or U73343 (final concentration, 2 μM each) was dissolved in Hanks’ Balanced Salt Solution (HBSS, Invitrogen, Carlsbad, CA, USA) supplemented with 1 mM Ca^2+ and 0.3 mM Mg^2+. Cells were incubated in HBSS with U73122 or U73343 for 10 min at room temperature before the whole cell current recording.
(§2) Composition of bath solution was (in mM) 140 NaCl, 4 KCl, 1 CaCl2, 0.3 MgCl2, 10 HEPES (pH 7.4 adjusted with NaOH). The pipette solution for whole cell patch clamp experiments contained (mM) 130 KCl, 5 Na2-ATP, 3 EGTA, 0.1 CaCl2, 10 HEPES, 4 MgCl2, (pH 7.3 adjusted with KOH). GTP (0.3 mM) was supplemented in the pipette solution. Once the whole cell configuration was established, the cell was held at -80mV and ramp pulses (-120mV to +40mV for 0.4 sec) were applied every 5 sec. Various concentrations of the agonists were applied using a fast perfusion system (VC77SP, Warner Instruments, Hamden, CT, USA). The PKC inhibitor chelerythrine was included in the pipette solution.
(§3) The amplitude of the THIK-1 channel current at 0 mV was measured from every trace induced by the ramp pulse protocol to minimize the fraction of non-selective cationic leak current. The current amplitude before the agonist application was set as the basal current amplitude (I0). The effects of GPCRs on the THIK-1 channel were evaluated as the ratio of the current amplitude after the agonist application to I0 (Iagonist/I0). The EC50 values were estimated by fitting the concentration response curve to a Hill equation (Origin2016; OriginLab, Northampton, MA, USA). […] The effects of A2aR on the Gi/o-R-induced current increase of the THIK-1 channel was estimated as follows. […] All data are shown as means and S.D. The statistical significance between two or more than two groups was estimated by unpaired Student’s t-test or by a one-way analysis of variance (ANOVA) followed by Tukey’s test, respectively. […] Values of p≤ 0.05 were considered as statistically significant (***:p≤0.001, **:0.001<p≤0.01, *:0.01<p≤0.05, n.s.:p>0.05).

Assay [2] concerns endogenously expressed channels in HEK293T cells. Nature of the assay: Effect of receptor stimulation on the endogenous current in HEK293T cells without THIK-1. It is filed as cell-based. To be noted: HEK293T transfected with GABABR, no THIK-1. An excerpt:
The amplitude of the current increase at the 15th trace (ΔI15th) after the application of GABA or oxo-M were normalized to that at the 5th traces (ΔI5th) with or without additional activation of A2aR (ΔI15th/ΔI5th).
The current density at 0 mV (I0) in HEK293T cell transfected with indicated receptors and the effects of the receptor stimulation are shown as Mean and S.D.

Assay [3] concerns intracellular cAMP (Gs signaling, A2aR). Nature of the assay: Intracellular cAMP, FRET based cAMP indicator in HEK293T cells. The class given is cell-based. To be noted: NECA 10 μM. The protocol:
HEK293T cells were culture on the glass bottom dishes and transfected with cDNAs for FRET based cAMP indicators and A2aR. […] transfection, cells were incubated in bath solution containing (mM) 140 NaCl, 1 CaCl2, 4 KCl, 0.3 MgCl2, 10 HEPES (pH was adjusted to 7.4 with NaOH) and fluorescent signals were acquired as previously described. CFP was excited by 442 nm laser line and emitted light was passed through S470/30 and S535/30 filters (Chroma), respectively. The fluorescence images were then amplified by an image intensifier unit (C8600, Hamamatsu Photonics) and recorded every 5 s using a cooled CCD camera (Qimage Retiga 6000, Roper Scientific). A laser switching controller (Olympus) was operated by using MetaFluor imaging software (Universal Imaging). The fluorescent intensities of CFP and YFP upon the CFP excitation were measured from fluorescent cells and cell free background.
Time dependent changes of the FRET efficiency of the FRET based cAMP indicator (FFRET/FCFP) are shown. Black bars show the application of the reagents, which was carried out by perfusion of the chamber (0.2-0.3 mL bath volume) with bath solution (1 mL) containing the reagent. […] The decrease in FRET were thought to be caused by the activation of the endogenous A2aR (Fig. S2E). Symbols show mean and SD.

For assay [4], the target named is T2, mGlu1 (Homo sapiens, UniProt Q13255).
T2 construct: expressed in transfected cells; host or cells: HEK293T
Nature of the assay: mGlu1-induced increase of THIK-1 channel current, whole cell patch clamp in HEK293T cells. It is filed as cell-based. To be noted: 2 μM for 10 min; glutamate 1 mM.
Excerpt: as §1, with “PTX was solved in the culture medium (final concentration, 300 ng/mL) and cells were incubated in it for more than 16 h. U73122 or U73343 (final concentration, 2 μM each) was dissolved in Hanks’ Balanced Salt Solution (HBSS, Invitrogen, Carlsbad, CA, USA) supplemented with 1 mM Ca^2+ and 0.3 mM Mg^2+. Cells were incubated in HBSS with U73122 or U73343 for 10 min at room temperature before the whole cell current recording.” left out
The amplitude of the THIK-1 channel current at 0 mV was measured from every trace induced by the ramp pulse protocol to minimize the fraction of non-selective cationic leak current. […] The effects of GPCRs on the THIK-1 channel were evaluated as the ratio of the current amplitude after the agonist application to I0 (Iagonist/I0). […]
A general note: In patch-clamp work, channel activity is measured electrically.

Assay [5] concerns the target T3, M1R-YFP / ΔN-THIK-2 channel (Homo sapiens, UniProt P11229).
T3 construct: expressed in transfected cells; host or cells: CHO-K1
T3 sequence (P11229 1-460): T1 sequence (P11229 1-460)
Nature of the assay: M1R-YFP-induced increase of ΔN-THIK-2 channel current in CHO-K1 cells. It is filed as cell-based, mouse. To be noted: oxo-M 10 μM.
Excerpt: as §1, with “Cells were incubated in HBSS with U73122 or U73343 for 10 min at room temperature before the whole cell current recording.” left out

Assay [6] deals with THIK-1 channel. Nature of the assay: Basal current (I0) density of THIK-1 channel at 0 mV in HEK293T cells. It is filed as cell-based. To be noted: 0 mV, before agonist.
Excerpt: as §1, §2, §3

T2 sequence (Q13255 19-1194): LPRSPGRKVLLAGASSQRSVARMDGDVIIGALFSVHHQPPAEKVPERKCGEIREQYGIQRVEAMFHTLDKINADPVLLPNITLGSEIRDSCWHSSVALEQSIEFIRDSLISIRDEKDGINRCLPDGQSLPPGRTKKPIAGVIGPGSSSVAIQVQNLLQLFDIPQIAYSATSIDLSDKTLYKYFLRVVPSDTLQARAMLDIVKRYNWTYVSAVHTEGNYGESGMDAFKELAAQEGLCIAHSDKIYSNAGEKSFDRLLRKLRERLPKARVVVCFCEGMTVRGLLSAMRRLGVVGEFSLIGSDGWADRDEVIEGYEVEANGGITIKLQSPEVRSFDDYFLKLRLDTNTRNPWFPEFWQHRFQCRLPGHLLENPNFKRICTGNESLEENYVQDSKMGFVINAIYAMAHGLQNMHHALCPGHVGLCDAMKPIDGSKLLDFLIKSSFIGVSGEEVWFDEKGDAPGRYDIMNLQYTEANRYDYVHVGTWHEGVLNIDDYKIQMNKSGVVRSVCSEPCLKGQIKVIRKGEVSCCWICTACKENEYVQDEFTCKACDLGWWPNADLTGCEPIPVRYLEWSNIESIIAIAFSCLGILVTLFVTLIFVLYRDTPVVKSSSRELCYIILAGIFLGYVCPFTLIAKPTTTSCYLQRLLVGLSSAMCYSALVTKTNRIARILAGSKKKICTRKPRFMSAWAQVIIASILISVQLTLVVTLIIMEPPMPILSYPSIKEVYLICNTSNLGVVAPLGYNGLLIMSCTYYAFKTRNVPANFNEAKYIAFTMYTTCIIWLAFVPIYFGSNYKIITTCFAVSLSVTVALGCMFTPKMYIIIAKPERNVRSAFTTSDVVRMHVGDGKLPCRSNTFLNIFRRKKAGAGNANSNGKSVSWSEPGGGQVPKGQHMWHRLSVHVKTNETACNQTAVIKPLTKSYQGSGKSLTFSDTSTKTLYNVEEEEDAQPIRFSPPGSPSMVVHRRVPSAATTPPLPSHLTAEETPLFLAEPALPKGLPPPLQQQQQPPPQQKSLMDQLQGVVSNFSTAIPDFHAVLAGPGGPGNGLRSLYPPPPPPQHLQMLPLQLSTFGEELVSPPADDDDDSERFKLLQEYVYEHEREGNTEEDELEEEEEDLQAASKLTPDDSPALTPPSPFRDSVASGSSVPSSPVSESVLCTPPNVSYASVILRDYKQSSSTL

Regarding `O=C(O)CN(CC(=O)O)c1ccccc1OCCOc1ccccc1N(CC(=O)O)CC(=O)O` [BAPTA], in assay [1], the “effect of the M1R activation (Iagonist/I0)” value is given as 3.0 ± 1.0.
Regarding `NCCCC(=O)O` [GABA], the “Effect of agonist (Iagonist/I0)” value in assay [2] amounted to 1.03 ± 0.06.
With `CCNC(=O)[C@H]1O[C@@H](n2cnc3c(N)ncnc32)[C@H](O)[C@@H]1O` [NECA, 5’-N-ethylcarboxamidoadenosine], in assay [3] (HEK293T transfected with heterologous A2aR), the “Gs signaling (cAMP indicator)” value is “fully activated”. In addition, the “intracellular cAMP” value in assay [3] (HEK293T without heterologous A2aR (endogenous A2aR), effect partial) is given as “increased the intracellular cAMP”.
In the case of `COc1ccc2c(c1)CC[C@@H]1[C@@H]2CC[C@]2(C)[C@@H](NCCCCCCN3C(=O)C=CC3=O)CC[C@@H]12` [U73122], the “effect of mGlu1 on THIK-1 current after PLC reagent” value in assay [4] is given as “inhibited”. For the same compound, the “effect of M1R-YFP on ΔN-THIK-2 channel after PLC reagent” value in assay [5] is reported as “inhibited”. The “Basal current (I0) density of THIK-1 channel” value was 35.7 ± 34.7 (9)^n.s pA/pF in assay [6] (THIK-1 + M1R, PLC reagent 2 μM 10 min); 99.2 ± 117.3 (7)^n.s pA/pF in assay [6] (THIK-1 + M3R, PLC reagent 2 μM 10 min); 112.2 ± 121.4 (10)^n.s pA/pF in assay [6] (THIK-1 + mGlu1, PLC reagent 2 μM 10 min).
